The results in this text go back to patent publication US9556187B2, “Substituted pyrrolo[3′,2′:5,6]pyrido[4,3-d]pyrimidines and JAK inhibitors comprising the same” (priority 2011, dated 2017).

Type in all cases: biochemical
The target in test [1] is T1, JAK1 (Homo sapiens (Human), UniProt P23458). As to the kind of experiment: Enzyme assay (LANCE Ultra ULight-JAK1 Peptide), JAK1. To be noted: ATP 100 μM.
Test [2] deals with T2, JAK2 (Homo sapiens (Human), UniProt O60674). The test is described as follows: Enzyme assay (LANCE Ultra ULight-JAK1 Peptide), JAK2. To be noted: ATP 100 μM. For orientation: TR-FRET usually uses a lanthanide donor and a delayed reading to cut background.
Another test concerns the target JAK3 (Homo sapiens (Human), UniProt P52333). As to the kind of experiment: Enzyme assay, JAK3 (Assay Example^b 1).
Test [3] addresses T2, JAK2. The test is described as follows: Enzyme assay, JAK2 (Assay Example^b 1). To be noted: ATP 100 μM.
Protocol: (§1) JAK1, JAK2, JAK3 and Tyk2 were purchased from Carna Biosciences, Inc. As the substrate, LANCE Ultra ULight-JAK1 Peptide (manufactured by PerkinElmer Co., Ltd. (PE)) was used. Dilute solutions of compounds and enzymes in assay buffer (50 mM HEPES pH7.5, 1 mM EGTA, 1 mM MgCl2, 2 mM DTT, 0.01% Tween20) were dispensed into wells of a 384-well black plate. After 5 minutes of preincubation, dilute solutions of the substrate and ATP (adenosine triphosphate) were added at a final concentration of 100 μM, and the plate was incubated at room temperature for 2 hours. After addition of a termination reagent containing EDTA (ehylenediamine tetraacetic acid) at a final concentration of 10 mM, LANCE Eu-W1024 Anti-phosphotyrosine (PT66) (manufactured by PE) was added, and after 1 hour of incubation, the fluorescences were measured with ARVO-HTS. From the plot of logarithm of a compound concentration and inhibitory activity, the IC50 was calculated.
The target of test [4] is T3, Tyk2 (Homo sapiens (Human), UniProt P29597). The test is described as follows: Enzyme assay, Tyk2 (Assay Example^b 1). To be noted: ATP 100 μM.
Protocol: as §1
Test [5] addresses T3, Tyk2. The test is described as follows: Enzyme assay (LANCE Ultra ULight-JAK1 Peptide), Tyk2. To be noted: ATP 100 μM.
Test [6] addresses T1, JAK1. The test is described as follows: Enzyme assay, JAK1 (Assay Example^b 1). To be noted: ATP 100 μM.
Protocol: as §1

T1 sequence (P23458 whole entry): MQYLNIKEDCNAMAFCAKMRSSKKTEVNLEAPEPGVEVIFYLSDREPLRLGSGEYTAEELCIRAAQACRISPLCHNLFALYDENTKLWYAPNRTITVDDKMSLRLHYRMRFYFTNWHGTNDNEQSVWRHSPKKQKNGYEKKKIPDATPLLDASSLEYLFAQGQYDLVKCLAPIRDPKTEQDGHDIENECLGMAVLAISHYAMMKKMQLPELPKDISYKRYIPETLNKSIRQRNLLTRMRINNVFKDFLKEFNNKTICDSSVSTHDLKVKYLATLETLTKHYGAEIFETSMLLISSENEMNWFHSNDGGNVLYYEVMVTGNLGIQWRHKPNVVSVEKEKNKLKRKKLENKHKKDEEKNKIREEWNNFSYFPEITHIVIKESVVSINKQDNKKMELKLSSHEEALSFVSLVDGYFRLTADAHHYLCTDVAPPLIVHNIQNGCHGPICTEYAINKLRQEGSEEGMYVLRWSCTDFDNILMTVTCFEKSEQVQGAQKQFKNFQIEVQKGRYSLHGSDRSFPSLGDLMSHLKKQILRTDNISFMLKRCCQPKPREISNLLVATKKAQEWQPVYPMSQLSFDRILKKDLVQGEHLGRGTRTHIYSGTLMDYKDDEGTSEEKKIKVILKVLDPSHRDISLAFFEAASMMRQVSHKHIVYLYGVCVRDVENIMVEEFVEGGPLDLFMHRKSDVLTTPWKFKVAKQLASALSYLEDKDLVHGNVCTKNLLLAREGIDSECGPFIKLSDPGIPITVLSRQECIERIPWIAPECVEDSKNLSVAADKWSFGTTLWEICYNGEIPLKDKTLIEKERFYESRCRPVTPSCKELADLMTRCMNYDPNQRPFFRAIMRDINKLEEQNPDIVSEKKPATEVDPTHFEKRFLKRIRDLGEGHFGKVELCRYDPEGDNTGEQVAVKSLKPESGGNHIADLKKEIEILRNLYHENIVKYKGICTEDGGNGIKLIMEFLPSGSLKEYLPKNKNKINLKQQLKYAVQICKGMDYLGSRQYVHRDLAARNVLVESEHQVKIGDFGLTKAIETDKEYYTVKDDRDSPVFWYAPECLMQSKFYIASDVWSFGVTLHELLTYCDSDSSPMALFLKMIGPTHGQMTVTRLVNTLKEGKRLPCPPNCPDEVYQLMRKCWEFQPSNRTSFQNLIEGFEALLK
T3 sequence (P29597 whole entry): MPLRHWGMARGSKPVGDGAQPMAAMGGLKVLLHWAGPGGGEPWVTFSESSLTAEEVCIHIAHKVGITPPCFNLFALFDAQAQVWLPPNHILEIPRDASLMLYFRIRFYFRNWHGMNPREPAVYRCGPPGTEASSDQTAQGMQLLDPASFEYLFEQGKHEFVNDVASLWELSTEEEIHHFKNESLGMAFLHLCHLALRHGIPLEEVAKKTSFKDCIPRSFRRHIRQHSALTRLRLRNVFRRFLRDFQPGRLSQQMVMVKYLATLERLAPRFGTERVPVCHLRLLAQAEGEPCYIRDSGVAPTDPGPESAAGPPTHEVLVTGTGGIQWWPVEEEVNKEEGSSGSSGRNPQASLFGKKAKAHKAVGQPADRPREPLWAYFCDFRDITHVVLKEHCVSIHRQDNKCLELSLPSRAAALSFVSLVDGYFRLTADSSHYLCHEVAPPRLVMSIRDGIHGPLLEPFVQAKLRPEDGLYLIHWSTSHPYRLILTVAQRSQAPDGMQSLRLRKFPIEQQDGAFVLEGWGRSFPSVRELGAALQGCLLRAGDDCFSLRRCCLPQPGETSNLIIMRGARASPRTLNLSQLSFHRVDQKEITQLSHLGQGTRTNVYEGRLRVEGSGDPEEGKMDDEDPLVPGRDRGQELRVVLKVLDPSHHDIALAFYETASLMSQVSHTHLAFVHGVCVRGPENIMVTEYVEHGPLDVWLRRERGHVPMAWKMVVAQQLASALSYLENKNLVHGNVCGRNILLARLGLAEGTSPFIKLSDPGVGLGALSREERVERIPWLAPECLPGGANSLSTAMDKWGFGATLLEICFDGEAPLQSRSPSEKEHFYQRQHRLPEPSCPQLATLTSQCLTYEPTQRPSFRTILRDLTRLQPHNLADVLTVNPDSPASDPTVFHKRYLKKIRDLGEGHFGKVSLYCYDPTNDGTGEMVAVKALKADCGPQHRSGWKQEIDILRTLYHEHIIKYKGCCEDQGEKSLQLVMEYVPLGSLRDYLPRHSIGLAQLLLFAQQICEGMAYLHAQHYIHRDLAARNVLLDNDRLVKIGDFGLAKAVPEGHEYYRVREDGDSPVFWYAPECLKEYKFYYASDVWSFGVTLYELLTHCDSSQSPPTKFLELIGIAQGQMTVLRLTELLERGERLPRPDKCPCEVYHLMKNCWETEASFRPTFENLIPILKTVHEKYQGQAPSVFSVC
Chain of JAK3 (P52333 whole entry): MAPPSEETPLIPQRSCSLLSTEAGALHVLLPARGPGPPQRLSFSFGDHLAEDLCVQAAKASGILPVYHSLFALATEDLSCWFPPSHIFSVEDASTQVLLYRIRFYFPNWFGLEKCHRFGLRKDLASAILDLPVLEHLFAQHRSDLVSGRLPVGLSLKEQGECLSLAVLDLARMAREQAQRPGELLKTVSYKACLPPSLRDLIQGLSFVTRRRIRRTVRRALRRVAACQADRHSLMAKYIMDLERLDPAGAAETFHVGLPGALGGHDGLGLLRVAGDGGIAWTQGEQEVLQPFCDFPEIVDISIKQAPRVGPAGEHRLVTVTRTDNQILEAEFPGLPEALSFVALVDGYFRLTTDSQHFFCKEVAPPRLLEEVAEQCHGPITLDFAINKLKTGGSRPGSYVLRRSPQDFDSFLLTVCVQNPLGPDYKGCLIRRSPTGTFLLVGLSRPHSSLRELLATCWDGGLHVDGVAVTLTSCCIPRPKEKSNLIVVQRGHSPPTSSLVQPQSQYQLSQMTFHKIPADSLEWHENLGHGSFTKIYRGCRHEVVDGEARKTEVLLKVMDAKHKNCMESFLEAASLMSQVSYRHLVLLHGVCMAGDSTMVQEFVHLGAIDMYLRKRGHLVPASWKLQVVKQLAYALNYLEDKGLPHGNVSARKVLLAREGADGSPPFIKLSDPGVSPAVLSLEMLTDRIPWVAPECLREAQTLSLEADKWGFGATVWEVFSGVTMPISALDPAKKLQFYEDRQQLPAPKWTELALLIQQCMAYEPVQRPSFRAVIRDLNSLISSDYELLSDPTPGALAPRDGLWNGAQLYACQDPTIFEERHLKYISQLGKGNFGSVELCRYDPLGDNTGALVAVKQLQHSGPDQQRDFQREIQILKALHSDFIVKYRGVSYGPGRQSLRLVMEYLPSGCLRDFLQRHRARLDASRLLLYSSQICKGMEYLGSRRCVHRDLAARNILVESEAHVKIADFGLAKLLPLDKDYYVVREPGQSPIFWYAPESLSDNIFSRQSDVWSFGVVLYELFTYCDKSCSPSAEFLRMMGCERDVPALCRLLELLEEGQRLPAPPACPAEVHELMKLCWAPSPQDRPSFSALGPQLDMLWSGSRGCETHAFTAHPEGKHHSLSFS
Protocol for JAK3: as §1

Turning to `CC(c1ccccc1)N1CCC(c2nnn3cnc4[nH]ccc4c23)CC1` (racemic) [Ex 245], the IC50 stood at 0.017 µM at JAK1 [1] (Synthetic Examples^a) and 0.062 µM on JAK2 [2] (Synthetic Examples^a).

Take `C[C@@H]1CCN(Cc2cccc(F)c2F)C[C@@H]1n1ccc(=O)c2cnc3[nH]ccc3c21` (racemic) [Synthetic Example^b 6a, rac-1-[(3R,4R)-1-(2,3-Difluorobenzyl)-4-methylpiperidin-3-yl]-1H-pyrrolo[2,3-h][1,6]naphthyridin-4(7H)-one]: at JAK3, the IC50 is 31 nM.

On to `C[C@@H]1CCN(C)C[C@@H]1n1ccc(=O)c2cnc3[nH]ccc3c21` (racemic) [Synthetic Example^b 6b, rac-1-[(3R,4R)-1,4-Dimethylpiperidin-3-yl]-1H-pyrrolo[2,3-h][1,6]naphthyridin-4(7H)-one], for which the IC50 against JAK2 [3] was 0.38 µM; at JAK3, 250 nM; on Tyk2 [4], 3.9 µM.

Regarding `CC1(C)CCC(c2nnn3cnc4[nH]ccc4c23)CC1` [Ex 64], the IC50 on JAK1 [1] was determined as 0.033 µM; at JAK2 [2], 0.12 µM; against Tyk2 [5] it was 0.31 µM; against JAK1 [6] it was 0.012 µM.

With `c1ccc2sc(CN3CCC(c4nnn5cnc6[nH]ccc6c45)CC3)nc2c1` [Ex 232], the figures for the IC50 at JAK1 [1] (Synthetic Examples^a), on JAK2 [2] (Synthetic Examples^a) and on Tyk2 [5] (Synthetic Examples^a) were 0.0053 µM, 0.033 µM and 0.74 µM, respectively.

Take `Brc1nc(CN2CCC(c3nnn4cnc5[nH]ccc5c34)CC2)sc1Br` [Ex 233]: the concentration for half-maximal inhibition (IC50) on JAK1 [1] (Synthetic Examples^a) came to 0.021 µM; at JAK2 [2] (Synthetic Examples^a) it was 0.071 µM.

What is called IC50 is the concentration that gives 50% inhibition.
